From PMC9145193 (Molecules, 2022) come the findings set out here.

Molecules are shown by their SMILES.

T1 sequence (O42275 24-633): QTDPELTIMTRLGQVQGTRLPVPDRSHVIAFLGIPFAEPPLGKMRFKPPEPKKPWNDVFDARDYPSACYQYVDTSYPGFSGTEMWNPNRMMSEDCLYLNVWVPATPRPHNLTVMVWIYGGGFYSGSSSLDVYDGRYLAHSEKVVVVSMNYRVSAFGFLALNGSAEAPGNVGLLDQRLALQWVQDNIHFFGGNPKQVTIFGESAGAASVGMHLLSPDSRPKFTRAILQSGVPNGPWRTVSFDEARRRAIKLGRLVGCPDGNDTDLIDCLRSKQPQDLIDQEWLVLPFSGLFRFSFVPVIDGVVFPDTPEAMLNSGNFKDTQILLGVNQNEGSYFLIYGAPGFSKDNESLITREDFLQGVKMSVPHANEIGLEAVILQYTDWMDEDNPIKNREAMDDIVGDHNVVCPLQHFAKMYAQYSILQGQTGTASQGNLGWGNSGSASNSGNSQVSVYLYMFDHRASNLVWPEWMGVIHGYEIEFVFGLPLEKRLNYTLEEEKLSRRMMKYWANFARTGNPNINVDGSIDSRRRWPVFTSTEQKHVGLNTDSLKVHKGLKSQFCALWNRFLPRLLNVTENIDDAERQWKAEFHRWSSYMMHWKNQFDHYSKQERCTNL

One data set addresses T1, AChE enzyme from electrophorus electricus (eeAChE) (Electrophorus electricus, UniProt O42275).
T1 construct: purchased Merck C3389
As to the kind of experiment: biochemical. As to conditions: mean ± SEM from three independent experiments. The method, then:
Donepezil was used as a positive control.
AChE activity was measured by the […] using AChE enzyme from electrophorus electricus (eeAChE) (C3389, Merck, Kenilworth, NJ, USA). AChE solution (2 U/mL) was prepared with 0.1 M phosphate buffer (pH 8.0) firstly. Varied concentrations of test compounds (20 μL), 1 mM 5′-dithiobis (2-nitrobenzoic acid) (DTNB) solution (100 μL), and AChE solution (40 μL) were added in order to each well of a 96-well plate. After incubation for 15 min at 37 °C, the reaction was initiated by adding 20 μL of acetylthiocholine iodide (1 mM) to the mixed solution. The absorbance of each plate was instantly measured at 405 nm using a microplate reader. The inhibition of each compound was estimated using the formula (1−Ai/Ac) × 100, where Ai and Ac represent the absorbance of AChE in the presence and absence of inhibitors, respectively. Each experiment was replicated three times. Plotting curves of log concentration via percentage of inhibition, the IC50 values of all tested compounds were graphically analyzed (Graph Pad Prism 8.0).
In the case of `COc1cc2c(cc1OC)C(=O)/C(=C/c1cc[n+](Cc3cccc(Cl)c3)cc1C(C)=O)OC2` [10f, (Z)-3-Acetyl-1-(3-chlorobenzyl)-4-((6,7-dimethoxy-4-oxoisochroman-3-ylidene)methyl)pyridin-1-ium Bromide], the midpoint of inhibition, the IC50, lay at 10.3 ± 1.08 nM.
The same measure, in the same setting: next, `COc1cc2c(cc1OC)C(=O)/C(=C/c1cc[n+](Cc3cccc(Cl)c3)cc1C(N)=O)OC2` [13f, (Z)-3-Carbamoyl-1-(3-chlorobenzyl)-4-((6,7-dimethoxy-4-oxoisochroman-3-ylidene)methyl)pyridin-1-ium Bromide]: 26.7 ± 0.28 nM; `COc1cc2c(cc1OC)C(=O)/C(=C/c1cc[n+](Cc3ccc(C)cc3)cc1C(C)=O)OC2` [10m, (Z)-3-Acetyl-4-((6,7-dimethoxy-4-oxoisochroman-3-ylidene)methyl)-1-(4-methylbenzyl)pyridin-1-ium Bromide]: 54.1 ± 3.22 nM; `COc1cc2c(cc1OC)C(=O)/C(=C/c1cc[n+](Cc3ccccc3C(F)(F)F)cc1C(C)=O)OC2` [10q, (Z)-3-Acetyl-4-((6,7-dimethoxy-4-oxoisochroman-3-ylidene)methyl)-1-(2-(trifluoromethyl)benzyl)pyridin-1-ium Bromide]: 18.9 ± 1.16 nM.
The molecule `COc1cc2c(cc1OC)C(=O)/C(=C/c1cc[n+](Cc3ccc(Cl)cc3)cc1C(C)=O)OC2` [10g, (Z)-3-Acetyl-1-(4-chlorobenzyl)-4-((6,7-dimethoxy-4-oxoisochroman-3-ylidene)methyl)pyridin-1-ium Bromide] came in with an IC50 of 67.3 ± 2.68 nM.
Still for that read-out and setting: under `COc1cc2c(cc1OC)C(=O)/C(=C/c1cc[n+](Cc3ccccc3C)cc1C(N)=O)OC2` [13k, (Z)-3-Carbamoyl-4-((6,7-dimethoxy-4-oxoisochroman-3-ylidene)methyl)-1-(2-methylbenzyl)pyridin-1-ium Bromide] stands 12.1 ± 0.9 nM; under `COc1cc2c(cc1OC)C(=O)/C(=C/c1cc[n+](Cc3cccc(C)c3)cc1C(C)=O)OC2` [10l, (Z)-3-Acetyl-4-((6,7-dimethoxy-4-oxoisochroman-3-ylidene)methyl)-1-(3-methylbenzyl)pyridin-1-ium Bromide], 6.61 ± 0.81 nM.
On the same count and under the same terms, under `COc1cc2c(cc1OC)C(=O)/C(=C/c1cc[n+](Cc3cccc([N+](=O)[O-])c3)cc1C(C)=O)OC2` [10o, (Z)-3-Acetyl-4-((6,7-dimethoxy-4-oxoisochroman-3-ylidene)methyl)-1-(3-nitrobenzyl)pyridin-1-ium Bromide] stands 22.4 ± 1.25 nM; under `COc1cc2c(cc1OC)C(=O)/C(=C/c1cc[n+](Cc3cccc(C(F)(F)F)c3)cc1C(N)=O)OC2` [13o, (Z)-3-Carbamoyl-4-((6,7-dimethoxy-4-oxoisochroman-3-ylidene)methyl)-1-(3-(trifluoromethyl)benzyl)pyridin-1-ium Bromide], 43 ± 0.44 nM; under `COc1cc2c(cc1OC)C(=O)/C(=C/c1cc[n+](Cc3cccc(C(F)(F)F)c3)cc1C(C)=O)OC2` [10r, (Z)-3-Acetyl-4-((6,7-dimethoxy-4-oxoisochroman-3-ylidene)methyl)-1-(3-(trifluoromethyl)benzyl)pyridin-1-ium Bromide], 25.3 ± 2.2 nM.
Still for that read-out and setting: next, `COc1cc2c(cc1OC)C(=O)/C(=C/c1cc[n+](Cc3ccccc3F)cc1C(C)=O)OC2` [10b, (Z)-3-Acetyl-4-((6,7-dimethoxy-4-oxoisochroman-3-ylidene)methyl)-1-(2-fluorobenzyl)pyridin-1-ium Bromide]: 3.32 ± 0.21 nM; `COc1cc2c(cc1OC)C(=O)/C(=C/c1cc[n+](Cc3cccc(F)c3)cc1C(N)=O)OC2` [13c, (Z)-3-Carbamoyl-4-((6,7-dimethoxy-4-oxoisochroman-3-ylidene)methyl)-1-(3-fluorobenzyl)pyridin-1-ium Bromide]: 6.02 ± 0.08 nM; `COc1cc2c(cc1OC)C(=O)/C(=C/c1cc[n+](Cc3ccc(C(F)(F)F)cc3)cc1C(C)=O)OC2` [10s, (Z)-3-Acetyl-4-((6,7-dimethoxy-4-oxoisochroman-3-ylidene)methyl)-1-(4-(trifluoromethyl)benzyl)pyridin-1-ium Bromide]: 326 ± 9.01 nM.
Consider `COc1cc2c(cc1OC)C(=O)/C(=C/c1cc[n+](Cc3ccccc3F)cc1C(N)=O)OC2.[Br-]` [13b, (Z)-3-Carbamoyl-4-((6,7-dimethoxy-4-oxoisochroman-3-ylidene)methyl)-1-(2-fluorobenzyl)pyridin-1-ium Bromide], for which the 50% inhibitory concentration (IC50) worked out at 3.54 ± 0.05 nM.
On the same count and under the same terms, under `COc1cc2c(cc1OC)C(=O)/C(=C/c1cc[n+](Cc3ccccc3C(F)(F)F)cc1C(N)=O)OC2` [13n, (Z)-3-Carbamoyl-4-((6,7-dimethoxy-4-oxoisochroman-3-ylidene)methyl)-1-(2-(trifluoromethyl)benzyl)pyridin-1-ium Bromide] stands 30.7 ± 0.71 nM; under `COc1cc2c(cc1OC)C(=O)/C(=C/c1cc[n+](Cc3ccc(F)cc3)cc1C(C)=O)OC2` [10d, (Z)-3-Acetyl-4-((6,7-dimethoxy-4-oxoisochroman-3-ylidene)methyl)-1-(4-fluorobenzyl)pyridin-1-ium Bromide], 7.69 ± 0.35 nM.
Molecule `COc1cc2c(cc1OC)C(=O)/C(=C/c1cc[n+](Cc3cccc(F)c3)cc1C(C)=O)OC2` [10c, (Z)-3-Acetyl-4-((6,7-dimethoxy-4-oxoisochroman-3-ylidene)methyl)-1-(3-fluorobenzyl)pyridin-1-ium Bromide] registered an IC50 of 4.03 ± 0.23 nM.
The same measure, in the same setting: under `COc1cc2c(cc1OC)C(=O)/C(=C/c1cc[n+](Cc3ccc([N+](=O)[O-])cc3)cc1C(C)=O)OC2` [10p, (Z)-3-Acetyl-4-((6,7-dimethoxy-4-oxoisochroman-3-ylidene)methyl)-1-(4-nitrobenzyl)pyridin-1-ium Bromide] stands 129 ± 2.68 nM.
Still for that read-out and setting: next, `COc1cc2c(cc1OC)C(=O)/C(=C/c1cc[n+](Cc3ccc(C(F)(F)F)cc3)cc1C(N)=O)OC2` [13p, (Z)-3-Carbamoyl-4-((6,7-dimethoxy-4-oxoisochroman-3-ylidene)methyl)-1-(4-(trifluoromethyl)benzyl)pyridin-1-ium Bromide]: 441 ± 7.82 nM.
Still for that read-out and setting: under `COc1cc2c(cc1OC)C(=O)/C(=C/c1cc[n+](Cc3cccc(Br)c3)cc1C(C)=O)OC2` [10i, (Z)-3-Acetyl-1-(3-bromobenzyl)-4-((6,7-dimethoxy-4-oxoisochroman-3-ylidene)methyl)pyridin-1-ium Bromide] stands 11 ± 0.82 nM.
Take `COc1cc2c(cc1OC)C(=O)/C(=C/c1cc[n+](Cc3ccc(Br)cc3)cc1C(C)=O)OC2` [10j, (Z)-3-Acetyl-1-(4-bromobenzyl)-4-((6,7-dimethoxy-4-oxoisochroman-3-ylidene)methyl)pyridin-1-ium Bromide]: half-maximal inhibition (IC50) was put at 75.7 ± 3.18 nM.

Another data set has as its system SH-SY5Y cells. As to the kind of experiment: Cytotoxicity assay on SH-SY5Y cells (MTT). Type of data set: cell-based. As to conditions: 10, 25 and 50 μM, 24 h. The method, then: To evaluate the cytotoxicity of these new compounds, cell viability was tested on SH-SY5Y cells.
SH-SY5Y cells were grown in a 25 cm^2 culture flask in fresh MEM/F12 medium, supplemented with 10% fetal bovine serum, 100 U/mL penicillin, and 100 µg/mL streptomycin, and incubated at 37 °C with 5% CO2. Cells were seeded at a density of 1 × 10^4 cells per well in a 96-well plate. After incubation for 24 h, medium was removed. […] After 24 h treatment, 10 μL of 3-(4,5-dimethyl-2-thiazolyl)-2,5-diphenyl-2-H-tetrazolium bromide was added into each well. After 4 h of incubation at 37 °C, 100 μL of DMSO was added to dissolve the formazan crystals, and the mixture’s absorbance was measured at 490 nm under a microplate reader (FC/K3, Thermo, Waltham, MA, USA). The survival rate was estimated using the formula Ae/Ab × 100%, where Ae and Ab represent the absorbance of SH-SY5Y cells in the presence and absence of the tested drugs, respectively. Each experiment was replicated three times.
In the case of `COc1cc2c(cc1OC)C(=O)/C(=C/c1cc[n+](Cc3ccccc3F)cc1C(N)=O)OC2.[Br-]` [13b, (Z)-3-Carbamoyl-4-((6,7-dimethoxy-4-oxoisochroman-3-ylidene)methyl)-1-(2-fluorobenzyl)pyridin-1-ium Bromide], the “Cell viability on SH-SY5Y cells” value is “did not significantly alter cell viability”.

System in a further data set: not listed separately
In words: DPPH free radical scavenging assay. As to conditions: 50 μM, mean ± SEM. As for the experimental part: DPPH assay was used to evaluate the free radical scavenging ability of the representative compound 10a, while Trolox was used as a control.
Compound 10a was tested for free radical-scavenging activity using 1,1-diphenyl-2-picryl-hydrazyl (DPPH) (D9132, Merck, Kenilworth, NJ, USA). To make a 0.1 mM concentration of DPPH stock solution, DPPH was dissolved in methanol. […] Trolox was used as a reference. The absorbance was measured at 545 nm after 30 min of reaction at 25 °C.
In general terms: Loss of DPPH colour is used to gauge radical scavenging.
Regarding `Cc1c(C)c2c(c(C)c1O)CCC(C)(C(=O)O)O2` (stereo not drawn) [Trolox, reference compound], the “Reduced DPPH (%)” value was determined as 72.41 ± 4.23%.

The target in a further data set is T2, Aβ (Homo sapiens, UniProt P05067).
T2 construct: Aggregation of β-amyloid peptide (Aβ) is one of the main histopathological hallmarks of AD; purchased Beyotime P9001
T2 sequence (P05067 672-713): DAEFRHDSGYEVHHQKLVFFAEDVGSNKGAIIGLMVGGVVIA
In words: Self-induced Aβ aggregation inhibition by thioflavin T assay. Type of data set: biochemical. As to conditions: 25 μM, self-induced, thioflavin T, mean ± SEM; read-out: Aβ Aggregation Inhibition (%). The method, then: Aggregation of β-amyloid peptide (Aβ) is one of the main histopathological hallmarks of AD [34].
A total of 1mg Aβ (P9001, Beyotime, Shanghai, China) was dissolved in 1 mL of hexafluoroisopropanol and aliquoted into 50 μL per tube. Then, 20 μL of DMSO was added into one tube of Aβ solution. The test compound was prepared as a 10 mM of stock solution with DMSO and diluted to 50 μM with PBS (including the control). Then, 20 μL of the test compound and 20 μL of the Aβ solution were added to a 96-well black plate, which was gently tapped to mix the solution, covered tightly and sealed with black tape to prevent evaporation of the solvent, and left in the dark at room temperature for 24 h. Then. 160 μL of THT solution at a concentration of 5 μM was added and the fluorescence absorption was measured at an excitation wavelength of 445 nm and an emission wavelength of 490 nm. The software GraphPad Prism 8.0 was used to analyze the data.
As to `Oc1ccc(/C=C/c2cc(O)cc(O)c2)cc1` [Resveratrol, reference compound], the inhibition at 25 µM came to 83.3 ± 5.23%.

One may read the IC50 as the concentration needed to halve the response being measured. High values mean lower potency, low ones higher potency. A word on the inhibition: it is the share of the control response that was lost under treatment.
